From patent publication US8192962B2, “Processes for detecting toxic substances” (Daikin Industries, Ltd., priority 2001, dated 2012)

Tested on: Genes belonging to other category
Assay: DNA chip mRNA expression in yeast, genes belonging to other category (Table 9)
Type: cell-based, Saccharomyces cerevisiae S288C
Experimental: Yeast (Saccharomyces cerevisiae S288C (α SUC2mal mel gap2 CUP1)) were incubated at 25° C. on YPD medium (yeast extract 1%, polypepton 2%, glucose 2%). One of toxic chemical substances was added to the cells at logarithmic growth phase, and the cells were further incubated for two hours. Cells were cultured without any chemical substance in the same condition, and were used as control. Concentrations of the chemical substances were defined to inhibit the growth of the yeast but not lead to death.
After completion of the incubation, the culture was centrifuged to collect the cells. To the cells, sodium acetate buffer (50 mM sodium acetate, 10 mM EDTA, 1% SDS) was added, and the mixture was shaken at 65° C. for five minutes, followed by returning to room temperature, and obtaining the supernatant, of which the procedures were repeated two times. To the supernatant, ½ amount of a solution of phenol/chloroform was added, and the mixture was centrifuged to give a supernatant, which was added with an equal amount of chloroform, and the mixture was centrifuged to give a supernatant. To the supernatant, an equal amount of isopropanol containing 0.3 M sodium acetate was added, and the mixture was allowed to stand at room temperature for 30 minutes, after which the mixture was centrifuged to give a sediment of the whole RNAs. Seventy % ethanol was added to the sediment, and the mixture was again centrifuged to give a sediment, which was then dried and dissolved in water. mRNA was isolated from the whole RNAs as followings. In view of the fact that a poly A chain is attached to the 3′ terminus of mRNA, a polynucleotide having a poly T structure which was immobilized on the surface of latex beads was used to trap the mRNA, and then the mRNA was washed and eluted with spine column (Oligotex-dT30<Super>mRNA Purification Kit, Takara). Reverse transcription of the mRNA was conducted with a reverse transcriptase (Super Script II Reverse Transcriptase; catalogue No. 18064-014, GibcoBRL) using fluorescence-labeled nucleotides to give cDNAs that were introduced with Cy3-dUTP or Cy5-dUTP during the reverse transcription.
The labeled cDNAs were dissolved in TE buffer (10mM Tris-HCl/1 mM EDTA, pH8.0), and the solution was dropped on the DNA chip containing the whole genes of yeast (DNA Chip Research Inc. Japan) so that the cDNAs were hybridized on the DNA chip at 65° C. for over 12 hours. The fluoresces intensity of the DNA chip was read with a scanner, and the ratio relative to the fluorescence intensity resulting from the absence of chemical substance was estimated as the following, which is shown in Tables 1 to 9: […]

Oc1cc(Cl)c(Cl)cc1Cl [(6), 2,4,5-trichlorophenol]
The level of expressed mRNA in the presence of chemical substance/The level of expressed mRNA in the absence of chemical substance (yeast gene YJL210W): 0.6 | The level of expressed mRNA in the presence of chemical substance/The level of expressed mRNA in the absence of chemical substance (yeast gene YJR004C): 1.2 | The level of expressed mRNA in the presence of chemical substance/The level of expressed mRNA in the absence of chemical substance (yeast gene YJR050W): 1.4 | The level of expressed mRNA in the presence of chemical substance/The level of expressed mRNA in the absence of chemical substance (yeast gene YJR086W): 1.9 | The level of expressed mRNA in the presence of chemical substance/The level of expressed mRNA in the absence of chemical substance (yeast gene YJR091C): 0.8 | The level of expressed mRNA in the presence of chemical substance/The level of expressed mRNA in the absence of chemical substance (yeast gene YJR110W): 0.9 | The level of expressed mRNA in the presence of chemical substance/The level of expressed mRNA in the absence of chemical substance (yeast gene YJR117W): 1.3 | The level of expressed mRNA in the presence of chemical substance/The level of expressed mRNA in the absence of chemical substance (yeast gene YJR119C): 1.4 | The level of expressed mRNA in the presence of chemical substance/The level of expressed mRNA in the absence of chemical substance (yeast gene YJR145C): 0.4 | The level of expressed mRNA in the presence of chemical substance/The level of expressed mRNA in the absence of chemical substance (yeast gene YKL008C): 3.8 | The level of expressed mRNA in the presence of chemical substance/The level of expressed mRNA in the absence of chemical substance (yeast gene YKL013C): 1.9 | The level of expressed mRNA in the presence of chemical substance/The level of expressed mRNA in the absence of chemical substance (yeast gene YKL025C): 0.9 | The level of expressed mRNA in the presence of chemical substance/The level of expressed mRNA in the absence of chemical substance (yeast gene YKL039W): 4.9 | The level of expressed mRNA in the presence of chemical substance/The level of expressed mRNA in the absence of chemical substance (yeast gene YKL041W): 2.2 | The level of expressed mRNA in the presence of chemical substance/The level of expressed mRNA in the absence of chemical substance (yeast gene YKL079W): 0.8 | The level of expressed mRNA in the presence of chemical substance/The level of expressed mRNA in the absence of chemical substance (yeast gene YKL096W): 0.6 | The level of expressed mRNA in the presence of chemical substance/The level of expressed mRNA in the absence of chemical substance (yeast gene YKL139W): 3.5 | The level of expressed mRNA in the presence of chemical substance/The level of expressed mRNA in the absence of chemical substance (yeast gene YKL165C): 0.6 | The level of expressed mRNA in the presence of chemical substance/The level of expressed mRNA in the absence of chemical substance (yeast gene YKL193C): 0.9 | The level of expressed mRNA in the presence of chemical substance/The level of expressed mRNA in the absence of chemical substance (yeast gene YKL196C): 0.9 | The level of expressed mRNA in the presence of chemical substance/The level of expressed mRNA in the absence of chemical substance (yeast gene YKR014C): 2.1 | The level of expressed mRNA in the presence of chemical substance/The level of expressed mRNA in the absence of chemical substance (yeast gene YKR098C): 1.8 | The level of expressed mRNA in the presence of chemical substance/The level of expressed mRNA in the absence of chemical substance (yeast gene YLR120C): 1.9 | The level of expressed mRNA in the presence of chemical substance/The level of expressed mRNA in the absence of chemical substance (yeast gene YLR136C): 1.7 | The level of expressed mRNA in the presence of chemical substance/The level of expressed mRNA in the absence of chemical substance (yeast gene YLR144C): 0.9 | The level of expressed mRNA in the presence of chemical substance/The level of expressed mRNA in the absence of chemical substance (yeast gene YLR178C): 4.2 | The level of expressed mRNA in the presence of chemical substance/The level of expressed mRNA in the absence of chemical substance (yeast gene YLR206W): 0.5 | The level of expressed mRNA in the presence of chemical substance/The level of expressed mRNA in the absence of chemical substance (yeast gene YLR250W): 1.1 | The level of expressed mRNA in the presence of chemical substance/The level of expressed mRNA in the absence of chemical substance (yeast gene YLR266C): 1.0 | The level of expressed mRNA in the presence of chemical substance/The level of expressed mRNA in the absence of chemical substance (yeast gene YLR327C): 5.1 | The level of expressed mRNA in the presence of chemical substance/The level of expressed mRNA in the absence of chemical substance (yeast gene YLR356W): 3.4 | The level of expressed mRNA in the presence of chemical substance/The level of expressed mRNA in the absence of chemical substance (yeast gene YLR360W): 1.4 | The level of expressed mRNA in the presence of chemical substance/The level of expressed mRNA in the absence of chemical substance (yeast gene YLR362W): 0.8 | The level of expressed mRNA in the presence of chemical substance/The level of expressed mRNA in the absence of chemical substance (yeast gene YLR389C): 0.2 | The level of expressed mRNA in the presence of chemical substance/The level of expressed mRNA in the absence of chemical substance (yeast gene YLR391W): 1.5 | The level of expressed mRNA in the presence of chemical substance/The level of expressed mRNA in the absence of chemical substance (yeast gene YLR429W): 0.8 | The level of expressed mRNA in the presence of chemical substance/The level of expressed mRNA in the absence of chemical substance (yeast gene YMR004W): 0.5 | The level of expressed mRNA in the presence of chemical substance/The level of expressed mRNA in the absence of chemical substance (yeast gene YMR094W): 0.5 | The level of expressed mRNA in the presence of chemical substance/The level of expressed mRNA in the absence of chemical substance (yeast gene YMR101C): 0.4 | The level of expressed mRNA in the presence of chemical substance/The level of expressed mRNA in the absence of chemical substance (yeast gene YMR104C): 1.9 | The level of expressed mRNA in the presence of chemical substance/The level of expressed mRNA in the absence of chemical substance (yeast gene YMR219W): 0.8 | The level of expressed mRNA in the presence of chemical substance/The level of expressed mRNA in the absence of chemical substance (yeast gene YMR226C): 2.6
